Measured values from patent US7935724B2, “Thiophene and benzothiophene hydroxamic acid derivatives” (Merck HDAC Research, LLC, priority 2003, dated 2011).

Columns and labels:
[1] = test system: murine erythroleukemia cell line SC9; assay: MTS assay (Cell Titer 96 Aqueous One Solution Cell Proliferation Assay); assay type: cell-based; settings: unit inferred, unit nm
Description: The novel compounds of the present invention were tested for their ability to inhibit proliferation of the murine erythroleukemia cell line SC9.
The MTS assay, also referred to as the Cell Titer 96 Aqueous One Solution Cell Proliferation Assay, is a calorimetric method for determining the number of viable cells in proliferation, cytotoxicity or chemosensitivity assays. The MTS reagent contains a novel tetrazolium compound [3-(4,5-dimethylthiazol-2-yl)-5-(3-carboxymethoxyphenyl)-2-(4-sulfophenyl)-2H-tetrazolium, inner salt] and electron coupling reagent (phenazine ethosulfate;PES). Murine erythroleukemia cells (SC-9) were incubated with vehicle or increasing concentrations of compound for 48 hours. Cell proliferation was quantitated by adding a small amount of the MTS reagent directly to culture wells, incubating for 1-4 hours and then recording the absorbance at 490 nm with a 96-well plate reader. The quantity of formazan product, as measured by […] absorbance, is directly proportional to the number of living cells in culture.

[2] = molecular target: T1, histone deacetylase, subtype 1 (HDAC1) (Homo sapiens, UniProt Q13547); assay: HDAC1-Flag assay (in vitro deacetylation assay); assay type: biochemical; settings: Table 1, benzothiophene backbone; concentration for 50% inhibition of deacetylation; substrate at Km; unit inferred, text gives nm; read-out: HDAC Inhibition
T1 construct: Flag; made in house
Summary of the method: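 Enzyme: Flag epitope-tagged human HDAC1 complex immunopurified from stably expressing mammalian cells. Substrate carries an acetylated lysine side chain; deacetylation yields a fluorophore proportional to activity, measured as fluorescence.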

[3] = Mus musculus, SC9, 48 h, Table 3, concentration inhibiting proliferation of SC9 cells
[4] = Table 3, concentration inhibiting proliferation of SC9 cells, 48 hours

T1 sequence (Q13547 whole entry): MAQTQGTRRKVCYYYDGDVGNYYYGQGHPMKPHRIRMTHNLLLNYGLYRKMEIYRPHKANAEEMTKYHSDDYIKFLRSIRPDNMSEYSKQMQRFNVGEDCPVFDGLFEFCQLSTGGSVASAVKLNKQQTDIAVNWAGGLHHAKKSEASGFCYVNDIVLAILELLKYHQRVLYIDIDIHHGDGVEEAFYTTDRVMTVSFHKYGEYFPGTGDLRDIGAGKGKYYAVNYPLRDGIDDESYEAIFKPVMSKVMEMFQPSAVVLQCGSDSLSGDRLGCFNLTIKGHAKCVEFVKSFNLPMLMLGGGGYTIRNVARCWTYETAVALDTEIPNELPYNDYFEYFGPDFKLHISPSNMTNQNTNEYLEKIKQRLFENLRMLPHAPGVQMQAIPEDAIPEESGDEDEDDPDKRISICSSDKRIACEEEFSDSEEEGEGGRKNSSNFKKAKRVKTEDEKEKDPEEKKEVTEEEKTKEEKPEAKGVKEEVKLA

SMILES	IC50 [1, 3] [nM]	IC50 [2] [nM]	IC50 [1, 4] [nM]
O=C(NO)c1cc2cc(CNCCC(c3ccccc3)c3ccccc3)ccc2s1 [Compound 155]	390	967 ± 215	–
O=C(NO)c1cc2cc(CNCCCCc3ccccc3)ccc2s1 [Compound 156]	966	275 ± 34.6	–
COc1ccc(CNCc2ccc3sc(C(=O)NO)cc3c2)cc1 [Compound 162]	587	110 ± 14.1	–
O=C(NO)c1cc2cc(CNCC3CCCCC3)ccc2s1 [Compound 164]	545 ± 24	207 ± 38.1	–
O=C(CN(CC(=O)Nc1ccccc1)c1ccc2sc(C(=O)NO)cc2c1)Nc1ccccc1 [Compound 177]	259 ± 48.7	57.3 ± 18.5	–
CCC(C(=O)Nc1ccc2cc(C(=O)NO)sc2c1)c1ccccc1 (centres unmarked) [Compound 181]	–	59.5 ± 3.5	528
O=C(NO)c1cc2ccc(CNCCc3c[nH]c4ccccc34)cc2s1 [Compound 188]	191	82.5 ± 16.2	–
CC(C)(C(=O)Nc1ccc2cc(C(=O)NO)sc2c1)c1ccccc1 [Compound 189]	493	72 ± 14.1	–

Stronger by IC50 [2], values ahead:

IC50 [1, 3] [nM]	IC50 [2] [nM]	IC50 [1, 4] [nM]	SMILES
93	55.5 ± 9.1	–	COc1cccc(CNCc2ccc3cc(C(=O)NO)sc3c2)c1 [Compound 186]
90	48.5 ± 6.3	–	COc1ccccc1CNCc1ccc2cc(C(=O)NO)sc2c1 [Compound 185]
56	23 ± 1.4	–	COc1ccc(CNCc2ccc3cc(C(=O)NO)sc3c2)cc1 [Compound 187]
–	18.5 ± 2.1	140	CCC(C(=O)Nc1ccc2cc(C(=O)NO)sc2c1)c1ccccc1 (centres unmarked) [Compound 180]
200 ± 19.7	6.5 ± 0.7	–	O=C(CN(CC(=O)Nc1ccccc1)c1ccc2cc(C(=O)NO)sc2c1)Nc1ccccc1 [Compound 178]
